According to ChEMBL document CHEMBL5303573, “Mapping human microbiome drug metabolism by gut bacteria and their genes” (Nature, 2019):

Columns and labels:
[1] = The drug is tested on Bifidobacterium breve strain: DSM20213 for biotransformation. The drug concentrations were measured before and after a 12-h incubation by liquid-chromatography-coupled mass spectrometry (LC–MS); details: 2 µM
[2] = The drug is tested on Bacteroides sp. WH2 strain: WH2 for biotransformation. The drug concentrations were measured before and after a 12-h incubation by liquid-chromatography-coupled mass spectrometry (LC–MS); details: bacteroides sp. wh2, 12 h, 2 µM
[3] = The drug is tested on Anaerotruncus colihominis strain: DSM17241 for biotransformation. The drug concentrations were measured before and after a 12-h incubation by liquid-chromatography-coupled mass spectrometry (LC–MS); details: 2 µM
[4] = The drug is tested on Blautia luti strain: DSM14534 for biotransformation. The drug concentrations were measured before and after a 12-h incubation by liquid-chromatography-coupled mass spectrometry (LC–MS); type: ADME; design: dose 2 uM, timepoint 0 vs 12 hours; details: 2 µM
[5] = The drug is tested on Clostridium sporogenes strain: ATCC15579 for biotransformation. The drug concentrations were measured before and after a 12-h incubation by liquid-chromatography-coupled mass spectrometry (LC–MS); details: 2 µM
[6] = The drug is tested on Dorea formicigenerans strain: ATCC27755 for biotransformation. The drug concentrations were measured before and after a 12-h incubation by liquid-chromatography-coupled mass spectrometry (LC–MS); details: 2 µM
[7] = The drug is tested on Eubacterium ventriosum strain: ATCC27560 for biotransformation. The drug concentrations were measured before and after a 12-h incubation by liquid-chromatography-coupled mass spectrometry (LC–MS); type: ADME; design: dose 2 uM, timepoint 0 vs 12 hours; details: 2 µM
[8] = The drug is tested on Ruminococcus gnavus strain: ATCC29149 for biotransformation. The drug concentrations were measured before and after a 12-h incubation by liquid-chromatography-coupled mass spectrometry (LC–MS); details: mediterraneibacter gnavus, 2 µM
[9] = The drug is tested on Ruminococcus lactaris strain: ATCC29176 for biotransformation. The drug concentrations were measured before and after a 12-h incubation by liquid-chromatography-coupled mass spectrometry (LC–MS); details: 2 µM
[10] = The drug is tested on Ruminococcus torques strain: ATCC27756 for biotransformation. The drug concentrations were measured before and after a 12-h incubation by liquid-chromatography-coupled mass spectrometry (LC–MS); type: ADME; design: dose 2 uM, timepoint 0 vs 12 hours; details: 2 µM
[11] = The drug is tested on Edwardsiella tarda strain: ATCC23685 for biotransformation. The drug concentrations were measured before and after a 12-h incubation by liquid-chromatography-coupled mass spectrometry (LC–MS); details: 2 µM
[12] = bacteroides intestinalis, 12 h, 2 µM
Description: The drug is tested on Bacteroides intestinalis strain: DSM17393 for biotransformation. The drug concentrations were measured before and after a 12-h incubation by liquid-chromatography-coupled mass spectrometry (LC–MS)

[13] = bacteroides thetaiotaomicron, 12 h, 2 µM
Description: The drug is tested on Bacteroides thetaiotaomicron strain: 3731 for biotransformation. The drug concentrations were measured before and after a 12-h incubation by liquid-chromatography-coupled mass spectrometry (LC–MS)

[14] = limosilactobacillus reuteri cf48-3a, 12 h, 2 µM
Description: The drug is tested on Lactobacillus reuteri CF48-3A strain: BEI HM-102 for biotransformation. The drug concentrations were measured before and after a 12-h incubation by liquid-chromatography-coupled mass spectrometry (LC–MS)

[15] = roseburia intestinalis, 12 h, 2 µM
Description: The drug is tested on Roseburia intestinalis strain: L1-82 for biotransformation. The drug concentrations were measured before and after a 12-h incubation by liquid-chromatography-coupled mass spectrometry (LC–MS)

[16] = The drug is tested on Bacteroides fragilis strain: HMW610 for biotransformation. The drug concentrations were measured before and after a 12-h incubation by liquid-chromatography-coupled mass spectrometry (LC–MS); details: 2 µM
[17] = The drug is tested on Bacteroides xylanisolvens strain: DSM18836 for biotransformation. The drug concentrations were measured before and after a 12-h incubation by liquid-chromatography-coupled mass spectrometry (LC–MS); details: 2 µM
[18] = The drug is tested on Bacteroides fragilis strain: HMW615 for biotransformation. The drug concentrations were measured before and after a 12-h incubation by liquid-chromatography-coupled mass spectrometry (LC–MS); details: 2 µM

Row | SMILES | Bacterial Biotransformation [1] | Bacterial Biotransformation [2] | Bacterial Biotransformation [3] | Bacterial Biotransformation [4] | Bacterial Biotransformation [5] | Bacterial Biotransformation [6] | Bacterial Biotransformation [7] | Bacterial Biotransformation [8] | Bacterial Biotransformation [9] | Bacterial Biotransformation [10] | Bacterial Biotransformation [11] | Bacterial Biotransformation [12] | Bacterial Biotransformation [13] | Bacterial Biotransformation [14] | Bacterial Biotransformation [15] | Bacterial Biotransformation [16] | Bacterial Biotransformation [17] | Bacterial Biotransformation [18]
1 | CN1CCC(OC(c2ccccc2)c2ccccc2)CC1 | Compound NOT metabolized | Compound NOT metabolized | Compound NOT metabolized | Compound NOT metabolized | Compound NOT metabolized | Compound NOT metabolized | Compound NOT metabolized | Compound NOT metabolized | Compound NOT metabolized | Compound NOT metabolized | Compound NOT metabolized | Compound NOT metabolized | Compound NOT metabolized | Compound NOT metabolized | Compound NOT metabolized | – | – | –
2 | CN1[C@@H]2CC[C@H]1C[C@@H](OC(=O)C(CO)c1ccccc1)C2 (stereo partly specified) [ATROPINE] | Compound NOT metabolized | Compound NOT metabolized | Compound NOT metabolized | Compound NOT metabolized | – | Compound NOT metabolized | Compound NOT metabolized | Compound NOT metabolized | – | Compound NOT metabolized | – | Compound NOT metabolized | – | Compound NOT metabolized | Compound NOT metabolized | Compound NOT metabolized | Compound NOT metabolized | –
3 | COc1ccc([C@@H]2Sc3ccccc3N(CCN(C)C)C(=O)[C@@H]2OC(C)=O)cc1 [DILTIAZEM] | Compound NOT metabolized | Compound metabolized | Compound NOT metabolized | Compound NOT metabolized | Compound NOT metabolized | Compound metabolized | Compound NOT metabolized | Compound NOT metabolized | Compound metabolized | Compound metabolized | Compound NOT metabolized | Compound metabolized | Compound metabolized | – | Compound NOT metabolized | Compound NOT metabolized | Compound metabolized | –
4 | CCN(CC)C(C)CN1c2ccccc2Sc2ccccc21 (stereo unspecified) [ETHOPROPAZINE] | Compound NOT metabolized | Compound NOT metabolized | Compound NOT metabolized | Compound NOT metabolized | Compound NOT metabolized | Compound NOT metabolized | Compound NOT metabolized | Compound NOT metabolized | Compound NOT metabolized | – | – | Compound metabolized | Compound NOT metabolized | – | Compound NOT metabolized | Compound NOT metabolized | Compound metabolized | –
5 | CC(C)c1c(CN(C)C(C)Cc2ccccc2)n(C)n(-c2ccccc2)c1=O (stereo unspecified) [FAMPROFAZONE] | Compound NOT metabolized | Compound metabolized | – | Compound NOT metabolized | Compound NOT metabolized | Compound metabolized | Compound NOT metabolized | Compound NOT metabolized | Compound NOT metabolized | Compound NOT metabolized | Compound metabolized | Compound metabolized | Compound metabolized | Compound metabolized | Compound NOT metabolized | Compound metabolized | Compound metabolized | –
6 | COCCCC/C(=N\OCCN)c1ccc(C(F)(F)F)cc1.O=C(O)/C=C\C(=O)O [FLUVOXAMINE MALEATE] | Compound NOT metabolized | Compound NOT metabolized | Compound NOT metabolized | Compound NOT metabolized | – | Compound NOT metabolized | Compound NOT metabolized | Compound NOT metabolized | Compound NOT metabolized | Compound NOT metabolized | Compound NOT metabolized | Compound NOT metabolized | Compound metabolized | Compound NOT metabolized | Compound NOT metabolized | – | Compound NOT metabolized | Compound NOT metabolized
7 | COc1ccc2cc([C@H](C)C(=O)O)ccc2c1 [NAPROXEN] | Compound NOT metabolized | – | Compound NOT metabolized | Compound NOT metabolized | – | Compound NOT metabolized | Compound NOT metabolized | Compound NOT metabolized | Compound NOT metabolized | Compound NOT metabolized | Compound NOT metabolized | Compound NOT metabolized | Compound NOT metabolized | Compound NOT metabolized | Compound NOT metabolized | Compound metabolized | Compound NOT metabolized | Compound metabolized
